pEC50: −log10 of the molar value. Like-named read-outs stand apart in the source and are kept apart here.

The source of these data is patent US9284303B2, “Benzimidazole cannabinoid agonists bearing a substituted heterocyclic group” (priority 2006, dated 2016).

Data set [1] has as its target T1, human CB1 (hCB1) receptor (Homo sapiens, UniProt P21554).
T1 construct: expressed in transfected cells; host or cells: CHO-K1
The data set is described as follows: Inhibition of forskolin-activated cAMP production upon activation of hCB1 (HTRF), CHO-K1 cells. It is filed as cell-based. The note with it: forskolin-activated cAMP, pEC50=-log(EC50); for CB1 pEC50: hCB1-CHO-K1 cells; for pEC50: CB1 pEC50, hCB1-CHO-K1 cells. An outline of the steps:
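CHO-K1 cells stably expressing hCB1 (20,000/well) were in HBSS stimulation buffer (1 mM IBMX, 10 mM MgCl2, 0.1% BSA, pH 7.4), with 6 μM forskolin in the compound buffer, 30 min at room temperature in the dark. cAMP was read as HTRF 665/620 ratio, normalized to DMSO and CP55490. Outputs were pEC50 and inhibition at 10 μM relative to CP55490.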

Data set [2] addresses T2, human CB2 (hCB2) receptor (Homo sapiens, UniProt P34972).
T2 construct: expressed in transfected cells; host or cells: CHO-K1
The data set is described as follows: Inhibition of forskolin-activated cAMP production upon activation of hCB2 (HTRF), CHO-K1 cells. Type of data set: cell-based. The note with it: for ratio CB2 agonism over CB1 agonism: Table C-1, selectivity hCB2 over hCB1; for EC50: read-out: CB2 pEC50 (converted). (In general: Changes in cAMP serve as a functional read-out for many G protein-coupled receptors.)

The mark [3] stands for this setting: hCB2-CHO-K1 cells, forskolin-activated cAMP, pEC50=-log(EC50).

T1 sequence (P21554 whole entry): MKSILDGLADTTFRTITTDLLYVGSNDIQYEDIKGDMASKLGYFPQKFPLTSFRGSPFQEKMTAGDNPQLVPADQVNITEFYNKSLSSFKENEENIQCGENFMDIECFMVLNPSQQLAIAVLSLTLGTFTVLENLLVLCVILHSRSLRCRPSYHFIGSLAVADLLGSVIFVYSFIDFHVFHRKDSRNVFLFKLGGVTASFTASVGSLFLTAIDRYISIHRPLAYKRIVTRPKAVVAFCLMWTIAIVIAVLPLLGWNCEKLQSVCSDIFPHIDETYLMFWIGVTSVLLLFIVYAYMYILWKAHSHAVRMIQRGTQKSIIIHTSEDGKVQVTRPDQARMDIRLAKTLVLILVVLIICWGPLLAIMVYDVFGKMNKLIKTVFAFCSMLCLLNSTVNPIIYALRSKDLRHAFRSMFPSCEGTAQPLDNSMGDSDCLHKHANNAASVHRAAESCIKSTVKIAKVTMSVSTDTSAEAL
T2 sequence (P34972 whole entry): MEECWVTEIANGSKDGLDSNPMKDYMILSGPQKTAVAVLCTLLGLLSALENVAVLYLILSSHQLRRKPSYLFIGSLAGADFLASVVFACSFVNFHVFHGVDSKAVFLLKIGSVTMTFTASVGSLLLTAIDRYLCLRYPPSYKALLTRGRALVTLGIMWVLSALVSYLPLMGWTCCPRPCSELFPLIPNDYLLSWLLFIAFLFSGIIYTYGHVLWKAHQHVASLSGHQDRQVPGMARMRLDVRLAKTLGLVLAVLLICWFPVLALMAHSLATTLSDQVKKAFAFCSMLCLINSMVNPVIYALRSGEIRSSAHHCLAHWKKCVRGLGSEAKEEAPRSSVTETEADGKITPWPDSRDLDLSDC

With `COCCCNc1cc(S(=O)(=O)c2ccc3c(c2)nc(C(C)(C)C)n3CC2CCOCC2)ccn1` [Co. No. 126], the melting point was 148.3 °C. In addition, the “CB1 pEC50” value in data set [1] came out at 6.02. Besides, in data set [2], the “ratio CB2 agonism over CB1 agonism” value is 1129. Besides, the EC50 in data set [2] (setting [3]) was 0.851 nM.

For the compound `CC(C)(C)Cn1c(C(C)(C)C)nc2cc(S(=O)(=O)c3ccnc(F)c3)ccc21` [Co. No. 127], the melting point was determined as 135.4 °C. In addition, the pEC50 in data set [1] is below 5.00. For the same compound, in data set [2] (CB2 pEC50, hCB2-CHO-K1 cells, forskolin-activated cAMP, pEC50=-log(EC50)), the pEC50 was 8.78. For the same compound, in data set [2], the “ratio CB2 agonism over CB1 agonism” value came out at 6026.

On to `CC(C)(C)c1nc2cc(S(=O)(=O)c3ccnc(F)c3)ccc2n1CCC1CCOCC1` [Co. No. 128], for which the melting point was determined as 177.8 °C. For the same compound, the pEC50 in data set [1] was below 5.00. Further, the “ratio CB2 agonism over CB1 agonism” value in data set [2] is recorded as above 4786. Besides, the EC50 in data set [2] (setting [3]) was 2.09 nM.

In turn, `CN(C)CCCOc1cc(S(=O)(=O)c2ccc3c(c2)nc(C(C)(C)C)n3CC2CCOCC2)ccn1` [Co. No. 129] gave a melting point of 119.4 °C. In data set [1], this compound showed a pEC50 of 5.02. Besides, the “ratio CB2 agonism over CB1 agonism” value in data set [2] was found to be 617. Moreover, the EC50 in data set [2] (setting [3]) was 15.5 nM.

`CC(C)(C)c1nc2cc(S(=O)(=O)c3ccnc(F)c3)ccc2n1CC1CCS(=O)(=O)CC1` [Co. No. 133] showed a melting point of 220.8 °C. The compound further showed a pEC50 in data set [1] below 5.00. The “ratio CB2 agonism over CB1 agonism” value in data set [2] is above 2512. For the same compound, the EC50 in data set [2] (setting [3]) was 3.98 nM.

The compound `CC(C)(C)c1nc2cc(S(=O)(=O)c3ccnc(F)c3)ccc2n1CC1CCC(=O)CC1` [Co. No. 134] returned a melting point of 164.8 °C. This compound had a pEC50 in data set [1] of 5.42. Further, in data set [2], the “ratio CB2 agonism over CB1 agonism” value was 2786. In addition, the EC50 in data set [2] (setting [3]) was 1.38 nM.

In turn, `CC(C)(C)c1nc2cc(S(=O)(=O)c3ccnc(F)c3)ccc2n1CCN1CCCC1` [Co. No. 144] registered a melting point of 115.5 °C. This compound had a pEC50 in data set [1] below 5.00. Also, the “ratio CB2 agonism over CB1 agonism” value in data set [2] is on record as above 3090. For the same compound, in data set [2] (setting [3]), the EC50 is 3.24 nM.

In turn, `CC(C)(C)c1nc2cc(S(=O)(=O)c3ccnc(F)c3)ccc2n1C[C@H]1CC[C@H](O)CC1` [Co. No. 146] had a melting point of 163.6 °C. The compound also had a pEC50 in data set [1] below 5.00. For the same compound, in data set [2], the “ratio CB2 agonism over CB1 agonism” value is reported as above 3981. For the same compound, the EC50 in data set [2] (setting [3]) was 2.51 nM.

`CCC(CC)Cn1c(C(C)(C)C)nc2cc(S(=O)(=O)c3ccnc(F)c3)ccc21` [Co. No. 147] came in with a melting point of 130.9 °C. Besides, the pEC50 in data set [1] was below 5.00. The “ratio CB2 agonism over CB1 agonism” value in data set [2] is reported as above 10471. Also, in data set [2] (setting [3]), the EC50 is 0.955 nM.

Compound `CC1(C)CC(Cn2c(C(C)(C)C)nc3cc(S(=O)(=O)c4ccnc(F)c4)ccc32)CCO1` (stereo not shown) [Co. No. 149] came in with a melting point of 159.4 °C. Also, the pEC50 in data set [1] was below 5.00. The “ratio CB2 agonism over CB1 agonism” value in data set [2] is given as above 8035. Also, the EC50 in data set [2] (setting [3]) is 1.26 nM.

As for `COCCOc1cc(S(=O)(=O)c2ccc3c(c2)nc(C(C)(C)C)n3CC2CCOCC2)ccn1` [Co. No. 150], the melting point was 142.9 °C. The “CB1 pEC50” value in data set [1] was determined as 6.09. In addition, in data set [2], the “ratio CB2 agonism over CB1 agonism” value stood at 638. Further, the EC50 in data set [2] (setting [3]) was 1.26 nM.

Compound `COCCCOc1cc(S(=O)(=O)c2ccc3c(c2)nc(C(C)(C)C)n3CC2CCOCC2)ccn1` [Co. No. 151] yielded a melting point of 106.5 °C. Moreover, the “CB1 pEC50” value in data set [1] was determined as 5.41. The “ratio CB2 agonism over CB1 agonism” value in data set [2] is listed as 8035. The EC50 in data set [2] (setting [3]) is 0.479 nM.

Consider `CC(C)(C)c1nc2cc(S(=O)(=O)c3ccnc(OCCCO)c3)ccc2n1CC1CCOCC1` [Co. No. 152], for which the melting point was determined as 161.5 °C. The “CB1 pEC50” value in data set [1] is on record as 5.44. In data set [2], the “ratio CB2 agonism over CB1 agonism” value is 3090. Also, the EC50 in data set [2] (setting [3]) is 1.17 nM.

`COCCCc1cc(S(=O)(=O)c2ccc3c(c2)nc(C(C)(C)C)n3CC2CCOCC2)ccn1` [Co. No. 154] displayed a melting point of 143.4 °C. The same compound gave a pEC50 in data set [1] below 5.00. Moreover, the “ratio CB2 agonism over CB1 agonism” value in data set [2] is given as above 9016. Besides, the EC50 in data set [2] (setting [3]) was 1.12 nM.

On to `Cn1cc(S(=O)(=O)c2ccc3c(c2)nc(C(C)(C)C)n3CC2CCN(C=O)CC2)cn1` [Co. No. 156], for which the melting point amounted to 213.9 °C. The compound also showed a pEC50 in data set [1] of 5.60. Also, the “ratio CB2 agonism over CB1 agonism” value in data set [2] is recorded as 617. The EC50 in data set [2] (setting [3]) was 4.07 nM.

`CC(=O)NCCc1cc(S(=O)(=O)c2ccc3c(c2)nc(C(C)(C)C)n3CC2CCOCC2)ccn1` [Co. No. 158] showed a melting point of 160.3 °C. Further, the “CB1 pEC50” value in data set [1] is 5.08. In data set [2], the “ratio CB2 agonism over CB1 agonism” value amounted to 5888. The “CB2 pEC50” value in data set [2] (setting [3]) is reported as 8.85.

Turning to `CC(=O)N1CCC(Cn2c(C(C)(C)C)nc3cc(S(=O)(=O)c4ccc(C#N)s4)ccc32)CC1` [Co. No. 159], the melting point stood at 181.2 °C. In addition, the pEC50 in data set [1] is below 5.00. Further, the “ratio CB2 agonism over CB1 agonism” value in data set [2] was above 4677. The EC50 in data set [2] (setting [3]) is 2.14 nM.

Take `CO[C@H]1CC[C@@H](Cn2c(C(C)(C)C)nc3cc(S(=O)(=O)c4ccnc(F)c4)ccc32)CC1` [Co. No. 162]: the melting point turned out to be 133.5 °C. For the same compound, the pEC50 in data set [1] is below 5.00. Further, in data set [2], the “ratio CB2 agonism over CB1 agonism” value is reported as above 27542. Besides, in data set [2] (setting [3]), the EC50 is 0.363 nM.

`CC(=O)N1CCC(Cn2c(C(C)(C)C)nc3cc(S(=O)(=O)c4cnn(C)c4)ccc32)CC1` [Co. No. 168]: the melting point turned out to be 166.2 °C. For the same compound, in data set [1], the negative-log EC50 (pEC50) was below 5.00. In addition, the “ratio CB2 agonism over CB1 agonism” value in data set [2] is on record as above 1230. The EC50 in data set [2] (setting [3]) was 8.13 nM.

As usually defined, the melting point is the temperature of the solid-liquid transition. As a reminder, the pEC50 is the negative decadic logarithm of the EC50, by convention in mol/L. A lower pEC50 goes with a high EC50.
